In US8114581B2, “Methods and compositions for detecting neoplastic cells” (The Regents of the University of California, priority 2005, dated 2012):

Key:
Assay type in all cases: cell-based
Src [1] = target: T1, Src (Homo sapiens, UniProt P12931); experiment: EGF-induced FRET response of Src reporter in HeLa cells
T1 construct: endogenous in cells; host or cells: HeLa
Description: The HeLa or MEF cells expressing the desired exogenous proteins were starved with 0.5% FBS for 36-48 h before being subjected to EGF (50 ng ml^−1) or PDGF (10 ng ml^−1) stimulation. During imaging, the cells were maintained in Hanks' balanced salt solution (HBSS) with 20 mMHEPES (pH 7.4) and 2 g 1^−1 D-glucose at 25° C. Images were collected by using MetaFluor 6.0 software (Universal Imaging) with a 440DF20 excitation filter, a 455DRLP dichroic mirror, and two emission filters controlled by a filter changer (480DF30 for CFP and 535DF25 for YFP).
The various plasmids were transfected into HeLa, MEF, SYF−/−, or 293 cells at 80% confluence using the lipofectamine method (Invitrogen). The RetroMax retroviral expression system (Imgenex) was used to introduce genes into HUVECs. Various Src reporters incorporated in PCLNCX vector were co-transfected with PCL-Ampho packaging vector into 293 cells by using lipofectamine. The supernatant of […] 293 cells was collected after 2 days of transfection and filtered through 0.45 um pore filters. HUVECs were infected with 1:1 mixture of the collected supernatant and fresh EGM in the presence of 8 ug/ml polybrene.

Src [2] = target: T1, Src; experiment: Fibronectin-coated bead / laser-tweezer force-induced FRET response in HUVECs; settings: HUVECs expressing Src reporter, PP1 10 uM
Description: (§1) To image the mechanical-force-induced Src activation, HUVECs were first starved with 0.5% FBS for 24 h and then kept in CO2-independent medium without serum (Gibco BRL) at 37° C. in a thermostatic chamber. A Zeiss axiovert inverted microscope equipped with a 440DF20 excitation filter and a 455DRLP dichroic mirror was integrated with the laser-tweezers. CFP and YFP emission images were acquired simultaneously with an ORCA ER CCD camera (Hamamatsu) through a Dual-View module (Optical-Insights). The CFP and YFP images were aligned pixel-by-pixel with our customized Matlab program by maximizing the normalized cross correlation coefficient of CFP and YFP fluorescence intensity images:
(§2) By taking the derivative of rho 2/B(κ) in Otsu's method 30 and calculating its first local minimum, a non parametric method was developed to calculate the intensity threshold to differentiate the edges of HUVECs from the background in CFP or YFP fluorescence intensity images. The intensity threshold was used to generate a binary mask image with values outside the cell set at zero to select the pixels located within the cell body in the CFP/YFP emission ratio images. […] For statistical analysis of long-range activation of Src, a pixel located within a cell at a given time is defined as ‘distally activated’ when: (1) its emission ratio value is above a certain percentage (98%, 90%, 80% and 50% were used as the thresholds) of pixel population in the same cell after 15 min of force stimulation, and (2) the distance between the pixel and the centre of the force-imposed bead is larger than half of the virtual radius of the cell, as shown in the following formula: […]
(§3) This critical force is a measure of the maximum trapping force, at a given laser power, exerted on the bead. […] Since the maximum trapping force occurs when the laser focus is away from the center and close to the edge of the bead, the experimental trapping force with the laser focused at 3.7 um off the bead center in our experiments was calculated from the Ashkin model of trapping force to be 300 pN. […]

Src [3] = experiment: as above; settings: HUVECs, membrane-targeted reporter, 300 pN; 1 hr incubation (cytochalasin D 0.2 uM, Nocodazole 1 uM); distal, but not local, responses
Description: as §1, §2, §3

T1 sequence (P12931 whole entry, species assumed): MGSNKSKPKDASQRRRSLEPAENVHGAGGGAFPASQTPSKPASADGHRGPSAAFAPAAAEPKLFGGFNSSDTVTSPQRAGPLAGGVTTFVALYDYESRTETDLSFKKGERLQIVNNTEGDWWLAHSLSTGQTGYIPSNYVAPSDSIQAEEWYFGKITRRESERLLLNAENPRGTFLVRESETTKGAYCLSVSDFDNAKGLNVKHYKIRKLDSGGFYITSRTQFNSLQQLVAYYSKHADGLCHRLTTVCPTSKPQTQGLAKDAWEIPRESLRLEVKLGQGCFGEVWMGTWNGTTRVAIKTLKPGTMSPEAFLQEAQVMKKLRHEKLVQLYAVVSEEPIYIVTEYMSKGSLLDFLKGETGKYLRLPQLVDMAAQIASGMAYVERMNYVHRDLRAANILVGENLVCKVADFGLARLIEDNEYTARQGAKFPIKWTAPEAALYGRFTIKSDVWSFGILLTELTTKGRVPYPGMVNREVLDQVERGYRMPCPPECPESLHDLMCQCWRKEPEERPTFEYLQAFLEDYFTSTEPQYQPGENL

Compound | effect on EGF-induced FRET response of membrane-targeted reporter, inhibitor added after EGF (Src [1]; EGF 50 ng/ml, PP1 10 uM) | effect on EGF-induced FRET response of membrane-targeted reporter, pretreatment with inhibitor (Src [1]; PP1 10 uM for 1 hr before EGF 50 ng/ml) | effect on EGF-induced FRET response of Src reporter, inhibitor added after EGF (Src [1]; cytosolic Src reporter) | effect on EGF-induced FRET response of Src reporter, pretreatment with inhibitor (Src [1]; cytosolic Src reporter) | effect on local FRET response caused by fibronectin-coated beads (Src [2]) | effect on force-induced distal FRET responses (Src [3])
Cc1ccc(-c2nn(C(C)(C)C)c3ncnc(N)c23)cc1 [PP1] | reversed | prevented | reversed | markedly reduced | reversible | –
C=C1[C@@H](C)[C@H]2[C@H](Cc3ccccc3)NC(=O)[C@]23[C@H](OC(C)=O)/C=C/[C@@](C)(O)C(=O)[C@@H](C)C/C=C/[C@H]3[C@@H]1O [cytochalasin D] | – | – | – | – | – | blocked
COC(=O)Nc1nc2ccc(C(=O)c3cccs3)cc2[nH]1 [nocodazole] | – | – | – | – | – | blocked
